In brackets after ≈: the same amount, converted by molar mass. Entries after “also recorded” stand apart in the source; their conditions may differ. Where two headings read alike, the source gives them in different places.
Experiments:
[1] = system: rats injected with kainic acid (KA); assay: Kainic acid (KA) seizure model, behaviour; format: in vivo, rat
Text: […]. Systemic administration of the glutamate analog, kainic acid (KA), to rats produces progressive limbic seizures culminating in status epilepticus that results in neuronal loss within limbic structures in a pattern similar to that observed in human temporal lobe epilepsy.

[2] = Max. solubility (Table 1); format: physicochemical
[3] = system: activity-regulated Gln/MeAIB transport (SNAT activity) in hippocampal neurons; assay: Activity-regulated (spontaneous, 4-AP- or K+-stimulated) [14C]-MeAIB transport in primary hippocampal neurons; format: cell-based, rat; set-up: block of transport activity: dose or concentration left out as unconfirmed
[4] = Tolerability observation after i.p. dosing of SKA-41; conditions: for tolerability: 10 mg/kg i.p., rats
KCa channels = conditions: cited from earlier work
[5] = system: organotypic hippocampal slice cultures; assay: Oxygen-glucose deprivation (OGD) in organotypic hippocampal slice cultures, propidium iodide staining; format: cell-based, rat; conditions: 20 min OGD, PI 24 h later; SKA-41 30 μM, MK-801 20 μM, riluzole 30 μM, NBQX 10 μM/AP5 50 μM
Experimental: OGD is an in vitro model for transient cerebral ischemia. In preliminary studies, we prepared hippocampal slice cultures from P7-8 rat pups. Experiments were performed at 14 DIV, when presynaptic Glu function is maximal and synapse formation and NMDAR subunit expression have reached a developmental stage sufficient to sensitize the slice to excitotoxic injury. Propidium iodide (PI), which binds to DNA in a nonspecific manner by penetrating damaged phospholipoid bilayers, was used to assess neural injury 24 h after OGD. […] SKA-41 was present 30 min prior to OGD, during OGD and during the 24 h recovery period.

[6] = system: hippocampal neurons of KA-treated rats; assay: KA-induced status epilepticus model, hippocampal neurodegeneration (fluoro-jade B, NeuN); format: in vivo, rat; conditions: rat, in vivo
Text: (§1) In Aim 3, we treat male and female rats with the ‘best’ SKA-41 derivatives before and after injection of kainic acid (KA). The KA-induced status epilepticus (SE) model is a well-validated model of temporal lobe epilepsy (TLE), the major form of human epilepsy. The model allows studying the different stages between SE and the development of TLE including SE, the acute and latent stages of epileptogenesis and chronic epilepsy. The excitotoxin KA causes excessive Glu release in the hippocampus and selective destruction of inhibitory SOM interneurons in the hilus region of the dentate gyrus (DG) and loss of pyramidal neurons in the CA3 (esp), and also CA1 regions. We scaled up synthesis of SKA-41, 219, and SKA-378. The identity of the compounds was confirmed by ^1H- and ^13C-NMR and high-resolution mass spectrometry. Compound purity is determined by HPLC and no compounds with less then 98% purity were used. […] Rats were processed for immunohistochemistry 3 days after KA administration. As expected, we find that KA treatment induces significant neural damage (green cells) in the CA3 pyramidal neuron subfield and in neurons in the hilus (FIG. 20 Panel A), which are SOM containing GABAergic interneurons (not shown). Fluoro jade B is a high affinity fluorescent marker used for the localization of neuronal degeneration. […] In studies, we have also administered SKA-378 (30 mg/kg) one hr after the onset of stage IV seizures (SE), followed by another injection at 4 hr post SE and then once each day for 3 days. We find that SKA-378 is also neuroprotective under these conditions.
as §1, with “with” for “with the ‘best’”, “(esp)” for “(esp),”, “were” for “was”, “We” for “As expected, we”, “23” for “20”, “Fluoro-jade” for “Fluoro jade”

## Nc1nc(-c2ccc(OC(F)(F)F)cc2)cs1 [SKA-41, 4-(4-(Trifluoromethoxy)phenyl)thiazol-2-amine]
[1]; SKA-41 30 mg/kg pretreatment
  time until staring and twitching signs disappeared after KA injection: ≤ 2 h
[1]; rat, in vivo
  clonic-tonic convulsions after KA: clonic-tonic convulsions were not observed
[2]
  solubility: 50 µM (≈ 13 µg/mL)
[3]
  block of transport activity: ~90%
[3]; Rattus norvegicus, Hippocampal neuron, at 10 μM, read-out: block / inhibition of transport activity
  inhibition at 10 µM: ~90%
[3]; Rattus norvegicus, Hippocampal neuron, hippocampal neurons in vitro, 14C-MeAIB 20 μM, read-out: IC50 to inhibit activity-regulated Gln/MeAIB transport
  IC50: ~2000 nM
[3]; Table 1: SKA-41, and active and inactive derivatives
  Active (annotation beside the compound name: active vs inactive derivatives): SKA-41 Active CAS no. 436151-95-0 (Oakwood Chemical)
[3]; screens, 10 μM, GABA 2 mM
  inhibition of spontaneous activity-regulated 14C-MeAIB transport, in words: active; also recorded: blocked spontaneous transport activity; also recorded: inhibited spontaneous transport activity
[4]
  tolerability: well tolerated with no overt toxicity or sedation; also recorded: well tolerated
[4]; listed as SKA41
  tolerability: well tolerated with no overt toxicity or sedation
[4]; 10-30 mg/kg
  untoward effects: did not observe any untoward effects
KCa channels
  effect on KCa channels / KCa currents: no effect
KCa channels; listed as SKA41
  effect on KCa channels / KCa currents: no effect; also recorded: inactive
[5]
  OGD-induced neural injury (PI staining): completely prevents PI staining; also recorded: prevents OGD-induced neural injury
[6]
  neuroprotection against Glu-induced excitotoxicity in the KA model of TLE: neuroprotective
